The assay addresses HSP90 (Homo sapiens, UniProt P07900). The assay is described as follows: HSP90 inhibition (HSP90 IC50). It is filed as biochemical.
The term IC50 denotes the concentration that inhibits the measured activity by half. The low end stands for higher potency, the high end for lower potency. `COc1cccc(C(=O)N[C@H]2C[C@H]3CC[C@@H](C2)N3c2ccc(C(=O)NCc3ccccc3N3CCN(C)CC3)cn2)c1C` [6-[3-endo-({[2-methyl-3-(methyloxy)phenyl]carbonyl}amino)-8-azabicyclo[3.2.1]oct-8-yl]-N-{[2-(4-methylpiperazin-1-yl)phenyl]methyl}pyridine-3-carboxamide] registered an IC50 of 1000 to 2000 nM. The result for `CC[C@H](C)Nc1cc(C(=O)NC2CC3CCC(C2)N3c2ccc(C(=O)C3CC3)cn2)ccc1C(N)=O` (stereo partly drawn) [N4-{8-[5-(cyclopropylcarbonyl)pyridin-2-yl]-8-azabicyclo[3.2.1]oct-3-endo-yl}-2-{[(1S)-1-methylpropyl]amino}benzene-1,4-dicarboxamide] reads less than 500 nM. Then `COc1cccc(C(=O)N[C@H]2C[C@H]3CC[C@@H](C2)N3c2ccc(C(=O)NCc3ccc(C(F)(F)F)cc3)cn2)c1C` [6-[3-endo-({[2-methyl-3-(methyloxy)phenyl]carbonyl}amino)-8-azabicyclo[3.2.1]oct-8-yl]-N-{[4-(trifluoromethyl)phenyl]methyl}pyridine-3-carboxamide], with 1000 to 2000 nM; and `COc1ccc(CNC(=O)c2ccc(N3[C@@H]4CC[C@H]3C[C@@H](NC(=O)c3cccc(OC)c3C)C4)nc2)cc1` [6-[3-endo-({[2-methyl-3-(methyloxy)phenyl]carbonyl}amino)-8-azabicyclo[3.2.1]oct-8-yl]-N-{[4-(methyloxy)phenyl]methyl}pyridine-3-carboxamide], with less than 500 nM; and `COc1cccc(C(=O)N[C@H]2C[C@H]3CC[C@@H](C2)N3c2ccc(C(=O)NCCc3ccncc3)cn2)c1C` [6-[3-endo-({[2-methyl-3-(methyloxy)phenyl]carbonyl}amino)-8-azabicyclo[3.2.1]oct-8-yl]-N-(2-pyridin-4-ylethyl)pyridine-3-carboxamide], with 1000 to 2000 nM. The result for `CC(=O)c1ccc(N2[C@@H]3CC[C@H]2C[C@@H](NC(=O)c2ccc(C(N)=O)c(NN4CCCCC4)c2)C3)nc1` [N4-[8-(5-acetylpyridin-2-yl)-8-azabicyclo[3.2.1]oct-3-endo-yl]-2-(piperidin-1-ylamino)benzene-1,4-dicarboxamide] reads less than 500 nM; that for `CCCCCNc1cc(C(=O)N[C@H]2C[C@H]3CC[C@@H](C2)N3c2ccc(C(C)=O)cn2)c(C)cc1C(N)=O` [N-[8-(5-acetylpyridin-2-yl)-8-azabicyclo[3.2.1]oct-3-endo-yl]-2-methyl-5-(pentylamino)benzene-1,4-dicarboxamide], less than 500 nM.

As for `CC(=O)c1ccc(N2C3CCC2CC(NC(=O)c2cc(N[C@H]4CC[C@H](O)CC4)c(C(N)=O)cc2C)C3)nc1` (stereo partly drawn) [N-[8-(5-acetylpyridin-2-yl)-8-azabicyclo[3.2.1]oct-3-endo-yl]-5-[(trans-4-hydroxycyclohexyl)amino]-2-methylbenzene-1,4-dicarboxamide], the 50% inhibitory concentration (IC50) was less than 500 nM. In turn, `Cc1c(C(N)=O)cccc1C(=O)N[C@H]1C[C@H]2CC[C@@H](C1)N2c1ccc(C(=O)NCc2ccccc2)cn1` [2-methyl-N-[8-(5-{[(phenylmethyl)amino]carbonyl}pyridin-2-yl)-8-azabicyclo[3.2.1]oct-3-endo-yl]benzene-1,3-dicarboxamide] had an IC50 of 2000 to 10000 nM. Then `CCN(CC)CCOc1ccc(CNC(=O)c2ccc(N3[C@@H]4CC[C@H]3C[C@@H](NC(=O)c3cccc(OC)c3C)C4)nc2)cc1` [N-[(4-{[2-(diethylamino)ethyl]oxy}phenyl)methyl]-6-[3-endo-({[2-methyl-3-(methyloxy)phenyl]carbonyl}amino)-8-azabicyclo[3.2.1]oct-8-yl]pyridine-3-carboxamide], with less than 500 nM; and `COc1ccc(CNC(=O)c2ccc(N3[C@@H]4CC[C@H]3C[C@@H](NC(=O)c3cccc(OC)c3C)C4)nc2)c(OC)c1` [N-{[2,4-bis(methyloxy)phenyl]methyl}-6-[3-endo-({[2-methyl-3-(methyloxy)phenyl]carbonyl}amino)-8-azabicyclo[3.2.1]oct-8-yl]pyridine-3-carboxamide], with 500 to 999 nM; and `CC(=O)c1ccc(N2[C@@H]3CC[C@H]2C[C@@H](NC(=O)c2ccc(C(N)=O)c(NC(C)C)c2)C3)nc1` [N4-[8-(5-acetylpyridin-2-yl)-8-azabicyclo[3.2.1]oct-3-endo-yl]-2-[(1-methylethyl)amino]benzene-1,4-dicarboxamide], with less than 500 nM. With `COc1cccc(C(=O)N[C@H]2C[C@H]3CC[C@@H](C2)N3c2ccc(C(=O)NCc3ccccc3)cn2)c1CCCNC(C)C` [6-[3-endo-({[2-{3-[(1-methylethyl)amino]propyl}-3-(methyloxy)phenyl]carbonyl}amino)-8-azabicyclo[3.2.1]oct-8-yl]-N-(phenylmethyl)pyridine-3-carboxamide], the IC50 lay in the range of 1000 to 2000 nM. As to `CC[C@H](C)NC(=O)c1ccc(N2C3CCC2CC(NC(=O)c2cccc(OC)c2C)C3)nc1` (stereo partly drawn) [6-[3-endo-({[2-methyl-3-(methyloxy)phenyl]carbonyl}amino)-8-azabicyclo[3.2.1]oct-8-yl]-N-[(1S)-1-methylpropyl]pyridine-3-carboxamide], the IC50 fell in the range of 2000 to 10000 nM.

As to `COc1cccc(C(=O)N[C@H]2C[C@H]3CC[C@@H](C2)N3c2ccc(C(=O)NCc3ccc(Cl)cc3)cn2)c1C` [N-[(4-chlorophenyl)methyl]-6-[3-endo-({[2-methyl-3-(methyloxy)phenyl]carbonyl}amino)-8-azabicyclo[3.2.1]oct-8-yl]pyridine-3-carboxamide], the IC50 is 500 to 999 nM. Then `COc1cccc(C(=O)N[C@H]2C[C@H]3CC[C@@H](C2)N3c2ccc(C(=O)NCc3ccc(N4CCOCC4)cc3)cn2)c1C` [6-[3-endo-({[2-methyl-3-(methyloxy)phenyl]carbonyl}amino)-8-azabicyclo[3.2.1]oct-8-yl]-N-[(4-morpholin-4-ylphenyl)methyl]pyridine-3-carboxamide], with less than 500 nM. Consider “N4-[8-(5-butanoylpyridin-2-yl)-8- azabicyclo[3.2.1]oct-3-endo-yl]-2- [(cyclopropylmethyl)amino]benzene- 1,4-dicarboxamide”, for which the IC50 was 500 to 999 nM. Then `CCOCCC(=O)c1ccc(N2[C@@H]3CC[C@H]2C[C@@H](NC(=O)c2ccc(C(N)=O)c(NCC4CC4)c2)C3)nc1` [2-[(cyclopropylmethyl)amino]-N4-(8-{5-[3-(ethyloxy)propanoyl]pyridin-2-yl}-8-azabicyclo[3.2.1]oct-3-endo-yl)benzene-1,4-dicarboxamide], with less than 500 nM; and `COc1cccc(C(=O)N[C@H]2C[C@H]3CC[C@@H](C2)N3c2ccc(C(=O)NCc3ccccc3)cn2)c1CCCO` [6-[3-endo-({[2-(3-hydroxypropyl)-3-(methyloxy)phenyl]carbonyl}amino)-8-azabicyclo[3.2.1]oct-8-yl]-N-(phenylmethyl)pyridine-3-carboxamide], with less than 500 nM. The result for `CC[C@@H](C)Nc1c(C(N)=O)cc(C)c(C(=O)NC2CC3CCC(C2)N3c2ccc(C(=O)C3CC3)cn2)c1Cl` (stereo partly drawn) [3-chloro-N4-{8-[5-(cyclopropylcarbonyl)pyridin-2-yl]-8-azabicyclo[3.2.1]oct-3-endo-yl}-5-methyl-2-{[(1R)-1-methylpropyl]amino}benzene-1,4-dicarboxamide] reads less than 500 nM; that for `CCC(CC)Nc1cc(C(=O)N[C@H]2C[C@H]3CC[C@@H](C2)N3c2ccc(C(C)=O)cn2)c(C)cc1C(N)=O`, less than 500 nM. The result for `CC(C)Nc1cc(C(=O)N[C@H]2C[C@H]3CC[C@@H](C2)N3c2ccc(C(=O)C3CC3)cn2)c(Br)cc1C(N)=O` [2-bromo-N-{8-(5-(cyclopropylcarbonyl)pyridin-2-yl]-8-azabicyclo[3.2.1]oct-3-endo-yl}-5-[(1-methylethyl)amino]benzene-1,4-dicarboxamide] reads less than 500 nM. Turning to “N-[(1S,2S)-2-hydroxycyclopentyl]-6- [3-endo-({[2-methyl-3- (methyloxy)phenyl]oarbonyl}amino)- 8-azabicyclo[3.2.1]oct-8-yl]pyridine- 3-carboxamide”, the IC50 was 500 to 999 nM. The result for `CC(=O)c1ccc(N2[C@@H]3CC[C@H]2C[C@@H](NC(=O)c2ccc(C(N)=O)c(NC4CCNCC4)c2)C3)nc1` [N4-[8-(5-acetylpyridin-2-yl)-8-azabicyclo[3.2.1]oct-3-endo-yl]-2-(piperidin-4-ylamino)benzene-1,4-dicarboxamide] reads less than 500 nM.

The molecule `NC(=O)c1cc(Cl)c(C(=O)N[C@H]2C[C@H]3CC[C@@H](C2)N3c2ccc(C(=O)NCc3ccccc3)cn2)cc1Cl` [2,5-dichloro-N-[8-(5-{[(phenylmethyl)amino]carbonyl}pyridin-2-yl)-8-azabicyclo[3.2.1]oct-3-endo-yl]benzene-1,4-dicarboxamide] yielded an IC50 of less than 500 nM. `Cc1cc(C(N)=O)c(N[C@H](C)C(C)(C)C)cc1C(=O)NC1CC2CCC(C1)N2c1ccc(C(=O)C2CC2)cn1` (stereo partly drawn) [N-{8-[5-(cyclopropylcarbonyl)pyridin-2-yl]-8-azabicyclo[3.2.1]oct-3-endo-yl}-2-methyl-5-{[(1R)-1,2,2-trimethylpropyl]amino}benzene-1,4-dicarboxamide]: the IC50 is less than 500 nM. Turning to `CC[C@@H](C)Nc1c(C(N)=O)cc(Br)c(C(=O)NC2CC3CCC(C2)N3c2ccc(C(=O)C3CC3)cn2)c1Cl` (stereo partly drawn) [5-bromo-3-chloro-N4-{8-[5-(cyclopropylcarbonyl)pyridin-2-yl]-8-azabicyclo[3.2.1]oct-3-endo-yl}-2-{[(1R)-1-methylpropyl]amino}benzene-1,4-dicarboxamide], the IC50 is less than 500 nM. Then `NC(=O)c1cc(Br)c(C(=O)N[C@H]2C[C@H]3CC[C@@H](C2)N3c2ccc(C(=O)C3CC3)cn2)cc1NCCC(F)(F)F` [2-bromo-N-{8-[5-(cyclopropylcarbonyl)pyridin-2-yl]-8-azabicyclo[3.2.1]oct-3-endo-yl}-5-[(3,3,3-trifluoropropyl)amino]benzene-1,4-dicarboxamide], with less than 500 nM; and `CCN1CCC[C@@H](NC(=O)c2ccc(N3C4CCC3CC(NC(=O)c3cc(C)c(C(N)=O)cc3C)C4)nc2)C1` (stereo partly drawn) [N-{8-[5-({[(3R)-1-ethylpiperidin-3-yl]amino}carbonyl)pyridin-2-yl]-8-azabicyclo[3.2.1]oct-3-endo-yl}-2,5-dimethylbenzene-1,4-dicarboxamide], with less than 500 nM.
